From the supplement of paper PMC13380429

Experiments:
Conditions in all cases: 72 h
[1] = tested on: Caco-2; assay: cell viability relative to DMSO; higher = less toxic
[2] = tested on: HepG2; assay: as above
[3] = tested on: U2OS; assay: as above
[4] = tested on: Caco-2; assay: relative viability EC50 (midpoint between 100% and the lowest measured viability); higher = less toxic
[5] = tested on: HepG2; assay: as above
[6] = tested on: U2OS; assay: as above
[7] = tested on: Caco-2; assay: drug sensitivity score (DSS) for viability; higher = more toxic; extreme values may be limits of the assay
[8] = tested on: HepG2; assay: as above
[9] = tested on: U2OS; assay: as above
[10] = tested on: Calu-3; assay: cell viability relative to DMSO; higher = less toxic
[11] = tested on: Vero E6; assay: as above
[12] = tested on: Calu-3; assay: relative viability EC50 (midpoint between 100% and the lowest measured viability); higher = less toxic
[13] = tested on: Vero E6; assay: as above
[14] = tested on: Calu-3; assay: drug sensitivity score (DSS) for viability; higher = more toxic; extreme values may be limits of the assay
[15] = tested on: Vero E6; assay: as above

SMILES | cell viability ([1]; 1 nM) [%] | cell viability ([1]; 10 nM) [%] | cell viability ([1]; 100 nM) [%] | cell viability ([1]; 1000 nM) [%] | cell viability ([1]; 10000 nM) [%] | cell viability ([2]; 1 nM) [%] | cell viability ([2]; 10 nM) [%] | cell viability ([2]; 100 nM) [%] | cell viability ([2]; 1000 nM) [%] | cell viability ([2]; 10000 nM) [%] | cell viability ([3]; 1 nM) [%] | cell viability ([3]; 10 nM) [%] | cell viability ([3]; 100 nM) [%] | cell viability ([3]; 1000 nM) [%] | cell viability ([3]; 10000 nM) [%] | relative viability EC50 [4] [µM] | relative viability EC50 [5] [µM] | relative viability EC50 [6] [µM] | drug sensitivity score [7] | drug sensitivity score [8] | drug sensitivity score [9] | cell viability ([10]; 1 nM) [%] | cell viability ([10]; 10 nM) [%] | cell viability ([10]; 100 nM) [%] | cell viability ([10]; 1000 nM) [%] | cell viability ([10]; 10000 nM) [%] | cell viability ([11]; 1 nM) [%] | cell viability ([11]; 10 nM) [%] | cell viability ([11]; 100 nM) [%] | cell viability ([11]; 1000 nM) [%] | cell viability ([11]; 10000 nM) [%] | relative viability EC50 [12] [µM] | relative viability EC50 [13] [µM] | drug sensitivity score [14] | drug sensitivity score [15]
NC(=O)OCCCc1ccccc1 [phenprobamate] | 104 | 95.4 | 99.1 | 102 | 104 | 105 | 109 | 95 | 98.6 | 112 | 102 | 98.6 | 103 | 102 | 98.9 | > 10 | > 10 | > 10 | 0 | 0 | 0 | – | – | – | – | – | – | – | – | – | – | – | – | – | –
CCc1ccc(CCOc2ccc(CC3SC(=O)NC3=O)cc2)nc1 (stereo not given) [pioglitazone] | 93.1 | 100 | 98.6 | 92.4 | 91.5 | – | – | – | – | – | 94.8 | 94.7 | 96 | 97.8 | 95.8 | > 10 | – | > 10 | 0 | – | 0 | 94.9 | 98.1 | 95.1 | 106 | 84.1 | 99 | 101 | 98.9 | 83 | 85.5 | > 10 | > 10 | 0.1 | 2
NCCNc1ccc(NCCN)c2c1C(=O)c1ccncc1C2=O [pixantrone] | 87.4 | 105 | 96.7 | 88.1 | 74.9 | 100 | 94.8 | 98.9 | 90.2 | 62.9 | 100 | 101 | 96.5 | 103 | 87.2 | – | – | > 10 | 1.9 | 3.3 | 0 | 93.4 | 120 | 95.4 | 102 | 82.5 | 104 | 104 | 104 | 94.4 | 97 | > 10 | > 10 | 0.3 | 0
CCOC(=O)[C@H](C)C[C@@H](Cc1ccc(-c2ccccc2)cc1)NC(=O)CCC(=O)O [sacubitril] | 94.4 | 95.3 | 101 | 92.5 | 100 | – | – | – | – | – | 101 | 98.5 | 96 | 97.3 | 97.5 | > 10 | – | > 10 | 0 | – | 0 | 91.6 | 96.6 | 99.4 | 97.3 | 98.5 | 93.6 | 106 | 91.3 | 94.5 | 107 | > 10 | > 10 | 0 | 0
O=C1NC(=O)[C@@]2(CCOc3ccc(F)cc32)N1 [sorbinil] | – | – | – | – | – | – | – | – | – | – | 96.7 | 105 | 97 | 102 | 96.5 | – | – | > 10 | – | – | 0 | 103 | 120 | 87.5 | 113 | 102 | – | – | – | – | – | > 10 | – | 0 | –
Cc1ccc(C(=O)c2cc(O)c(O)c([N+](=O)[O-])c2)cc1 [tolcapone] | – | – | – | – | – | 106 | 117 | 105 | 109 | 97.2 | – | – | – | – | – | – | > 10 | – | – | 0 | – | – | – | – | – | – | 109 | 102 | 99.8 | 100 | 104 | – | > 10 | – | 0
Cc1cc(Nc2cc(N3CCN(C)CC3)nc(Sc3ccc(NC(=O)C4CC4)cc3)n2)n[nH]1 [tozasertib] | 97.1 | 91.1 | 96.2 | 97.7 | 77.9 | 103 | 99.2 | 70.4 | 72.4 | 36.4 | 105 | 101 | 101 | 86.2 | 54.9 | > 10 | 0.448 | – | 1.1 | 9.1 | 4.4 | 110 | 97.6 | 96.8 | 89.1 | 70.9 | 107 | 107 | 100 | 84.2 | 85 | – | > 10 | 2.2 | 1.6
COc1ccc(/C=C/C(=O)Nc2ccccc2C(=O)O)cc1OC [tranilast] | 96.9 | 97 | 95.3 | 103 | 93.3 | – | – | – | – | – | 97.2 | 97.3 | 93.2 | 99.8 | 96 | > 10 | – | > 10 | 0 | – | 0 | 91.9 | 107 | 88.3 | 95.9 | 93.1 | – | – | – | – | – | > 10 | – | 0 | –
N#Cc1ccc2[nH]cc(CCCCN3CCN(c4ccc5oc(C(N)=O)cc5c4)CC3)c2c1 [vilazodone] | 96.6 | 106 | 104 | 101 | 83 | 107 | 99.9 | 99.5 | 95.9 | 66.4 | 99.4 | 108 | 97.7 | 101 | 92 | > 10 | – | > 10 | 0.3 | 2.2 | 0 | 87.5 | 88.7 | 74.5 | 93.6 | 86.6 | 92.7 | 99.6 | 95.3 | 91.2 | 71.6 | > 10 | – | 0 | 2
